The target of assay [1] is KRas G12C (Homo sapiens, UniProt P01116, C118S/C51S/C80L/G12C). As to the kind of experiment: KRas G12C Modification Assay (LCMS detection of covalent adduct). It is filed as binding. The procedure:
A 10 μL aliquot of each protein solution was then transferred to a 384 well microtiter plate. Initial compound stocks were generated at fifty times their desired final assay concentration in DMSO.
Exemplary compounds of Formula (I) were diluted 25-fold into K-Ras Assay Buffer to a final of two times their final concentration. A 10 μL aliquot of each diluted compound solution was then added to each of the protein solutions in the microtiter plate to initiate reaction. […] At each time point, the reactions were quenched with 20 μL of a 25 mM acetic acid solution. […] Once all reactions were quenched, the plates were heat sealed and the samples were injected into a LC/MS system for data acquisition.
Samples were injected in their liquid phase onto a C-3 reverse phase column to remove assay buffer and prepare the samples for mass spectrometer. The proteins were eluted from the column using an acetonitrile gradient and fed directly into the mass analyzer. Initial raw data analysis took place in Agilent MassHunter software immediately post data acquisition.
Raw data analysis of the intact protein was exclusively a deconvolution of the multiple charge states of each protein in solution using a maximum entropy deconvolution provided in Mass Hunter. To minimize complexity, only the data over limited mass ranges were considered for analysis, with a minimum of one Dalton mass step intervals. The heights of all masses identified during raw data analysis were exported to be further analyzed in Spotfire® data analysis software.
Final data analysis was a multistep process in the Spotfire® data analysis software package. Briefly, each protein mass was calculated as a percent of the total signal of that sample, that percentage was then normalized to the percentage of signal of the protein in the absence of reactive compounds. Those normalized signals were reported as normalized percent of control (POC). […] Key: “A”≤25% POC; “B”>25% POC-≤50% POC; “C”>50% POC and ND=not determined.

In assay [2] the target is KRas G12C (Homo sapiens, UniProt P01116, G12C). As to the kind of experiment: Cellular inhibition of KRas G12C measured by Phospho-ERK in NCI-H358 cells. It is filed as cell-based. Conditions: pERK(Thr202/Tyr204) normalized with GAPDH, NCI-H358 cells, 3 hours; read-out: IC50. Put shortly:
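Ratio of phospho-ERK(Thr202/Tyr204) to GAPDH, read by near-infrared secondary antibodies on fixed, permeabilised NCI-H358 cells, expressed relative to DMSO control. Compound exposure was 3 h at 0.5% DMSO. IC50 values come from 4-parameter curve fits.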

[3] abbreviates: normalized percent of control, 5 μM concentration for 3 hours.

The structures appear in SMILES notation.

What is called IC50 is the concentration at which inhibition is half-maximal. With `C=C(F)C(=O)N1CCN(c2nc(OC[C@@H]3CCCN3C)nc3c2CCN(c2cccc4cccc(C(F)(F)F)c24)C3)C[C@@H]1CC#N` [Example 589, 2-((S)-1-(2-Fluoroacryloyl)-4-(2-(((S)-1-methylpyrrolidin-2-yl)methoxy)-7-(8-(trifluoromethyl)naphthalen-1-yl)-5,6,7,8-tetrahydropyrido[3,4-d]pyrimidin-4-yl)piperazin-2-yl)acetonitrile], the POC result on KRas G12C [1] (setting [3]) is recorded as “C (“C”>50% POC)”. For the same molecule, the IC50 at KRas G12C [2] fell in the range of 0.0001 to 1 µM.

Turning to `C=C(F)C(=O)N1CCN(c2nc(OC[C@@H]3CCCN3Cc3ccccc3)nc3c2CCN(c2cccc4cccc(C)c24)C3)C[C@@H]1CC#N` [Example 596, 2-((S)-4-(2-(((S)-1-Benzylpyrrolidin-2-yl)methoxy)-7-(8-methylnaphthalen-1-yl)-5,6,7,8-tetrahydropyrido[3,4-d]pyrimidin-4-yl)-1-(2-fluoroacryloyl)piperazin-2-yl)acetonitrile], the POC result on KRas G12C [1] (setting [3]) was “C (“C”>50% POC)”. The IC50 at KRas G12C [2] fell in the range of 0.0001 to 1 µM.

`C=CC(=O)N1CCN(c2nc(OC[C@@H]3CCCN3C)nc3c2CCN(c2c(C)c(C)cc4[nH]c(=O)[nH]c24)C3)CC1` [Example 456, 5,6-dimethyl-4-[2-[[(2S)-1-methylpyrrolidin-2-yl]methoxy]-4-(4-prop-2-enoylpiperazin-1-yl)-6,8-dihydro-5H-pyrido[3,4-d]pyrimidin-7-yl]-1,3-dihydrobenzimidazol-2-one]: the POC result on KRas G12C [1] (setting [3]) is “C (“C”>50% POC)”. For the same molecule, the half-inhibitory concentration (IC50) on KRas G12C [2] was above 1 µM. The matching figures for `C=C(F)C(=O)N1CCN(c2nc(OC[C@@H]3CCCN3C)nc3c2CCN(c2cc(O)cc4ccccc24)C3)C[C@@H]1CC#N` [Example 556, 2-[(2S)-1-(2-Fluoroprop-2-enoyl)-4-[7-(3-hydroxy-1-naphthyl)-2-[[(2S)-1-methylpyrrolidin-2-yl]methoxy]-6,8-dihydro-5H-pyrido[3,4-d]pyrimidin-4-yl]piperazin-2-yl]acetonitrile]: “C (“C”>50% POC)” and 0.0001 to 1 µM.

On to `C=CC(=O)N1CCN(c2nc(OC[C@@H]3CCCN3C)nc3c2CCN(c2c(C)ccc4[nH]ncc24)C3)CC1` [Example 155, (S)-1-(4-(7-(5-methyl-1H-indazol-4-yl)-2-((1-methylpyrrolidin-2-yl)methoxy)-5,6,7,8-tetrahydropyrido[3,4-d]pyrimidin-4-yl)piperazin-1-yl)prop-2-en-1-one], for which, at KRas G12C [1] (5 µM), the POC entry is “C (key: “A”≤25% POC; “B”>25% POC-≤50% POC; “C”>50% POC)”. The IC50 at KRas G12C [2] is 0.0001 to 1 µM. In the case of `C=CC(=O)N1CCN(c2nc(OC[C@@H]3CCCN3C)nc3c2CCN(c2c(C(F)(F)F)ccc4[nH]ncc24)C3)CC1CC#N` (stereo partly drawn) [Example 149, 2-[4-[2-[[(2S)-1-methylpyrrolidin-2-yl]methoxy]-7-[5-(trifluoromethyl)-1H-indazol-4-yl]-6,8-dihydro-5H-pyrido[3,4-d]pyrimidin-4-yl]-1-prop-2-enoyl-piperazin-2-yl]acetonitrile], at KRas G12C [1] (setting [3]), the POC result is recorded as “B (“B”>25% POC-≤50% POC)”. Moreover, the IC50 at KRas G12C [2] is 0.0001 to 1 µM.

Turning to `Cc1cccc2cccc(N3CCc4c(nc(OC[C@@H]5CC(F)(F)CN5C)nc4N4CCN(C(=O)/C=C/CF)[C@@H](CC#N)C4)C3)c12` [Example 529, 2-((S)-4-(2-(((S)-4,4-difluoro-1-methylpyrrolidin-2-yl)methoxy)-7-(8-methylnaphthalen-1-yl)-5,6,7,8-tetrahydropyrido[3,4-d]pyrimidin-4-yl)-1-((E)-4-fluorobut-2-enoyl)piperazin-2-yl)acetonitrile], the POC result at KRas G12C [1] (setting [3]) is recorded as “C (“C”>50% POC)”. Besides, the concentration for half-maximal inhibition (IC50) on KRas G12C [2] lay in the range of 0.0001 to 1 µM. The matching figures for `C=CC(=O)N1CCN(c2nc(OC[C@@H]3CCCN3C)nc3c2CCN(c2cc(O)cc4ccccc24)C3)CC1CC#N` (stereo partly drawn) [Example 182, 2-[4-[7-(3-hydroxy-1-naphthyl)-2-[[(2S)-1-methylpyrrolidin-2-yl]methoxy]-6,8-dihydro-5H-pyrido[3,4-d]pyrimidin-4-yl]-1-prop-2-enoyl-piperazin-2-yl]acetonitrile]: “C (“C”>50% POC)” and 0.0001 to 1 µM. Taken in the same sequence, the figures for `C=C(F)C(=O)N1CCN(c2nc(OC[C@@H]3CCCN3C)nc3c2CCN(c2nccc4cccc(Br)c24)C3)C[C@@H]1CC#N` [Example 594, 2-((S)-4-(7-(8-Bromoisoquinolin-1-yl)-2-(((S)-1-methylpyrrolidin-2-yl)methoxy)-5,6,7,8-tetrahydropyrido[3,4-d]pyrimidin-4-yl)-1-(2-fluoroacryloyl)piperazin-2-yl)acetonitrile] were “A (“A”≤25% POC)” and above 1 µM. The matching figures for `CC(=O)N(C)C/C=C/C(=O)N1CCN(c2nc(OC[C@@H]3CCCN3C)nc3c2CCN(c2cccc4cccc(C)c24)C3)C[C@@H]1CC#N` [Example 587]: “A (“A”≤25% POC)” and above 1 µM. Regarding `C=CC(=O)N1CCN(c2nc(OC[C@H]3CCN(C)C3)nc3c2CCN(c2cccc4ccccc24)C3)CC1CC#N` (stereo partly drawn) [Example 399, 2-(1-acryloyl-4-(2-(((S)-1-methylpyrrolidin-3-yl)methoxy)-7-(naphthalen-1-yl)-5,6,7,8-tetrahydropyrido[3,4-d]pyrimidin-4-yl)piperazin-2-yl)acetonitrile], the POC entry at KRas G12C [1] (setting [3]) is given as “C (“C”>50% POC)”. On KRas G12C [2], the IC50 lay in the range of 0.0001 to 1 µM. The matching figures for `C=C(F)C(=O)N1CCN(c2nc(OC[C@@H]3CCN(C)C3)nc3c2CCN(c2cccc4cccc(C)c24)C3)C[C@@H]1CC#N` [Example 562, 2-[(2S)-1-(2-Fluoroprop-2-enoyl)-4-[7-(8-methyl-1-naphthyl)-2-[[(3R)-1-methylpyrrolidin-3-yl]methoxy]-6,8-dihydro-5H-pyrido[3,4-d]pyrimidin-4-yl]piperazin-2-yl]acetonitrile]: “C (“C”>50% POC)” and 0.0001 to 1 µM.

`C=CC(=O)N1CCN(c2nc(OC[C@@H]3CCCN3C(C)C)nc3c2CCN(c2cccc4ccccc24)C3)CC1CC#N` (stereo partly drawn) [Example 252, 2-[4-[2-[[(2S)-1-isopropylpyrrolidin-2-yl]methoxy]-7-(1-naphthyl)-6,8-dihydro-5H-pyrido[3,4-d]pyrimidin-4-yl]-1-prop-2-enoyl-piperazin-2-yl]acetonitrile]: the POC entry at KRas G12C [1] (setting [3]) is given as “C (“C”>50% POC)”. In addition, at KRas G12C [2], the IC50 was 0.0001 to 1 µM. Taken in the same sequence, the figures for `Cc1cccc(N2CCc3c(nc(OC[C@@H]4CCCN4C)nc3N3CCN(C(=O)C4=CCC4)[C@@H](CC#N)C3)C2)c1C` [Example 392, 2-((S)-1-(cyclobut-1-ene-1-carbonyl)-4-(7-(2,3-dimethylphenyl)-2-(((S)-1-methylpyrrolidin-2-yl)methoxy)-5,6,7,8-tetrahydropyrido[3,4-d]pyrimidin-4-yl)piperazin-2-yl)acetonitrile] were “C (“C”>50% POC)” and above 1 µM. The matching figures for `C=C(F)C(=O)N1CCN(c2nc(SC[C@@H]3CCCN3C)nc3c2CCN(c2cccc4cccc(C)c24)C3)C[C@@H]1CC#N` [Example 599, 2-((S)-1-(2-Fluoroacryloyl)-4-(7-(8-methylnaphthalen-1-yl)-2-((((S)-1-methylpyrrolidin-2-yl)methyl)thio)-5,6,7,8-tetrahydropyrido [3,4-d]pyrimidin-4-yl)piperazin-2-yl)acetonitrile]: “C (“C”>50% POC)” and above 1 µM. The matching figures for `C=CC(=O)N1CCN(c2nc(OCCCN3C[C@@H](F)[C@@H](F)C3)nc3c2CCN(c2cc(O)cc4ccccc24)C3)CC1` [Example 208, 1-(4-(2-(3-((3R,4S)-3,4-difluoropyrrolidin-1-yl)propoxy)-7-(3-hydroxynaphthalen-1-yl)-5,6,7,8-tetrahydropyrido[3,4-d]pyrimidin-4-yl)piperazin-1-yl)prop-2-en-1-one]: “C (“C”>50% POC)” and above 1 µM. Consider `C=CC(=O)N1CCN(c2nc(OC[C@@H]3[C@H](F)CCN3C)nc3c2CCN(c2cccc4ccccc24)C3)C[C@@H]1CC#N` [Example 440, 2-((S)-1-acryloyl-4-(2-(((2R,3R)-3-fluoro-1-methylpyrrolidin-2-yl)methoxy)-7-(naphthalen-1-yl)-5,6,7,8-tetrahydropyrido[3,4-d]pyrimidin-4-yl)piperazin-2-yl)acetonitrile], for which, on KRas G12C [2], the IC50 was in the range of 0.0001 to 1 µM. Same read-out and setting: in the case of `C=CC(=O)N1CCN(c2nc(OC[C@@H]3CCN(C)C3)nc3c2CCN(c2cccc4ccccc24)C3)C[C@@H]1CC#N` [Example 410, 2-((S)-1-acryloyl-4-(2-(((R)-1-methylpyrrolidin-3-yl)methoxy)-7-(naphthalen-1-yl)-5,6,7,8-tetrahydropyrido[3,4-d]pyrimidin-4-yl)piperazin-2-yl)acetonitrile] it was 0.0001 to 1 µM.

The record behind these values is patent US10689377B2 (Mirati Therapeutics, Inc., priority 2017, dated 2020).
